Reference: publication PMC12649225, “Machine Learning-Identified Potent Antimicrobial Peptides Against Multidrug-Resistant Bacteria and Skin Infections” (Antibiotics, 2025)
Read-outs that look alike come from different tables or passages of the source. Residues, ends and D or L forms follow the SMILES beside them.

Tests used:
[1] = tested on: BJ human skin fibroblast cells; test: WST-1 metabolic activity assay (cell viability); settings: lowest concentration causing <70% metabolic activity (WST-1); BJ fibroblasts; 24 h; DMEM with 2% FBS; 0.05-60 µM
Description: BJ human skin fibroblast cells (ATCC CRL-2522; RRID: CVCL_3653; LGC Standards, Germany (September 2023)) were cultured in Dulbecco’s Modified Eagle Medium (DMEM; Gibco, Waltham, MA, USA) supplemented with 10% (v/v) foetal bovine serum (FBS; Sigma-Aldrich) and 1% (v/v) penicillin/streptomycin (pen/strep; Gibco). Cell suspensions (5 × 10^5 cells/mL) were seeded into 96-well plates (100 μL/well; Thermo Scientific, Waltham, MA, USA) and allowed to adhere for 24 h. Monolayers were then exposed to two-fold serial dilutions of GDST peptides, their RI variants, and reference peptides (final concentrations: 0.05 to 60 µM) in fresh DMEM with 2% (v/v) FBS for 24 h at 37 °C in a humidified atmosphere with 5% CO2.
Cell viability and membrane integrity were assessed using the water-soluble tetrazolium salt (WST-1; Roche, Basel, Switzerland) assay and the lactate dehydrogenase (LDH; Abcam, Cambridge, UK) assay, respectively, according to manufacturer instructions. Results were expressed as percentages of metabolic activity and LDH leakage relative to untreated control cells and the positive lysis control, respectively. The cytotoxic concentration was defined as the lowest peptide concentration causing <70% metabolic activity and >30% LDH leakage. All experiments were performed in triplicate.

[2] = tested on: A. baumannii RUH875
Description: (§1) Bacteria incubated in PBS alone served as no-treatment controls. At five time points (1, 2, 5, 30, and 120 min), duplicate 50 µL samples were taken and immediately mixed with 50 µL of 0.05% (v/v) sodium polyanethol sulfonate (SPS; Sigma-Aldrich) in PBS to neutralize residual peptide activity. The number of viable bacteria was quantified by plating 10 µL aliquots of serial 10-fold dilutions onto sheep blood agar plates. Colonies were counted after 24 h of incubation at 37 °C.

[3] = tested on: S. aureus JAR060131
Description: as §1

[4] = tested on: S. aureus JAR060131; test: SYTOX Green membrane permeabilization assay; format: cell-based, Staphylococcus aureus; settings: for Concentrations causing rapid rise in SYTOX fluorescence, S. aureus: RPMI, 1 μM SYTOX Green, 90 min, 37 °C; for Time to rise in SYTOX fluorescence intensity after peptide addition, S. aureus: at both sublethal and lethal concentrations
Description: Control samples were exposed to RPMI only. As a positive control, heat-killed bacteria were incubated at 95 °C for 10 min to induce maximum membrane permeabilization. Fluorescence (excitation: 485 nm, emission: 520 nm) was monitored every minute for 90 min at 37 °C using a […] plate reader (Ortenberg, Germany), with peptides and positive controls added after the third cycle. Background fluorescence (SYTOX Green alone) was subtracted from all values. All assays were performed in triplicate and repeated twice independently.

[5] = tested on: A. baumannii RUH875 biofilm; test: Biofilm killing; format: cell-based, Acinetobacter baumannii; settings: for Concentration killing ≥3 log CFU of A. baumannii biofilm within 2 h / Concentration giving complete eradication of A. baumannii biofilm, 24 h treatment: 24 h biofilm; for Concentration killing ≥3 log CFU of A. baumannii biofilm within 2 h: 2 h treatment in PBS, 1.88-120 μM, vs untreated biofilm; for Concentration giving complete eradication of A. baumannii biofilm, 24 h treatment: 24 h treatment in PBS; for A. baumannii biofilm killing, 24 h treatment (in words): up to 120 µM
Description: (§2) Mid-logarithmic phase cultures of A. baumannii RUH875 or S. aureus JAR060131 were diluted to 1 × 10^8 CFU/mL in RPMI supplemented with 1% glucose. A total of 100 μL of each suspension was added to flat-bottom polystyrene 96-well microplates (Costar) and incubated under static conditions at 37 °C in a humidified atmosphere for 24 h to allow biofilm formation. After 24 h, planktonic bacteria were removed, and wells were carefully washed with 100 μL PBS [60]. […] Control samples were exposed to 100 μL of PBS only.
(§3) Biofilms were treated at 37 °C for either 2 or 24 h. […] Plates were sealed and sonicated for 5 min (Elmasonic, Singen, Germany; 45 kHz) at room temperature to dislodge adherent bacteria. […] Quantitative cultures were performed by plating serial 10-fold dilutions on sheep blood agar, and results were expressed as log10 CFU per well. The lower limit of detection was three CFU. Each condition was tested in six replicates.

[6] = tested on: S. aureus JAR060131 biofilm; test: Biofilm killing; format: cell-based, Staphylococcus aureus; settings: for Concentration giving ≥3-log reduction of S. aureus biofilm CFU within 24 h: 24 h treatment, >3 log for BP2 and pexiganan; for Concentration giving ≥3-log reduction of S. aureus biofilm CFU within 2 h / Concentration giving complete eradication of S. aureus biofilm within 24 h: 24 h biofilm; for Concentration giving ≥3-log reduction of S. aureus biofilm CFU within 2 h: 2 h treatment in PBS; for Concentration giving complete eradication of S. aureus biofilm within 24 h: 24 h treatment in PBS
Description: as §2, §3

[7] = tested on: S. aureus JAR060131; test: 3D human skin equivalent (HSE) infection model; format: cell-based, Staphylococcus aureus; settings: for Concentration giving significant reductions in adherent S. aureus in HSE / Concentration eradicating adherent S. aureus in HSE: adherent fraction; for Concentration giving significant reductions in adherent S. aureus in HSE: p < 0.001
Description: Human keratinocytes (Ker-CT cell line; ATCC CRL-4048; RRID: CVCL_S877; ATCC, Manassas, VA, USA (October 2017)) were used to generate human skin equivalents (HSEs) following the method described by Gent et al.. Briefly, HSEs were cultured for 12 days, after which the culture medium was replaced with antibiotic-free medium, and cells were grown for an additional two days before infection (Figure S2). On the day of infection, HSEs were inoculated with 300 µL of S. aureus JAR060131 suspension (3 × 10^5 CFU) and incubated for 1 h at 37 °C with 5% CO2. Following incubation, the bacterial suspension was removed, and HSEs were washed once with 500 µL PBS. HSEs were then treated for 4 h with PBS (control), GDST-038, GDST-045, their RI variants, or the reference peptide SAAP-148 at concentrations of 3.75, 15, and 60 μM, in triplicate. Subsequently, supernatants containing planktonic (non-adherent) bacteria were collected and kept on ice. Peptide activity was neutralized by adding SPS (final concentration: 0.025% (v/v)). Adherent bacteria within HSEs were quantified by homogenizing the tissues in 0.5 mL PBS containing 0.025% (v/v) SPS, using five zirconia beads (Ø 2 mm; BioSpec Products, Bartlesville, OK, USA) in a MagNA Lyser System (Roche) for three cycles of 30 sec at 7000 rpm, with 30 sec cooling intervals on ice. Both supernatants and homogenized fractions were serially diluted, plated on blood agar, and incubated overnight at 37 °C to determine CFU counts.

[8] = 4 h peptide exposure, tested 3.75, 15, 60 μM
[9] = at all tested concentrations (3.75 µM, 15 µM, and 60 µM), 4 h

| Compound | Cytotoxicity Metabolic Activity <70% [1] [µM] | Time to complete killing of A. baumannii ([2]; 3.75 μM) [min] | Time to complete killing of S. aureus ([3]; 3.75 μM) [min] | Concentrations causing rapid rise in SYTOX fluorescence, S. aureus [4] [µM] | Concentration killing ≥3 log CFU of A. baumannii biofilm within 2 h [5] [µM] | Concentration giving complete eradication of A. baumannii biofilm, 24 h treatment [5] [µM] | Concentration giving ≥3-log reduction of S. aureus biofilm CFU within 24 h [6] [µM] | Concentration giving significant reductions in adherent S. aureus in HSE ([7]; 4 h) [µM] | Effect on non-adherent S. aureus in HSE ([7]; at 15 µM and 60 µM, 4 h) | Concentration giving ≥3-log reduction of S. aureus biofilm CFU within 2 h [6] [µM] | Concentration giving complete eradication of S. aureus biofilm within 24 h [6] [µM] | Time to complete killing of S. aureus ([3]; 1.88 μM) [min] | Time to rise in SYTOX fluorescence intensity after peptide addition, S. aureus [4] [min] | A. baumannii biofilm killing, 24 h treatment (in words) ([5]; 24 h treatment) | Concentration eradicating adherent S. aureus in HSE [7, 8] [µM] | Effect on non-adherent S. aureus in HSE [7, 9] | also measured |
| --- | --- | --- | --- | --- | --- | --- | --- | --- | --- | --- | --- | --- | --- | --- | --- | --- | --- |
| CC[C@@H](C)[C@@H](NC(=O)[C@@H](C)NC(=O)[C@@H](CCCCN)NC(=O)[C@@H](CCCCN)NC(=O)[C@@H](Cc1c[nH]c2ccccc12)NC(=O)[C@@H](Cc1c[nH]c2ccccc12)NC(=O)[C@@H](CCCNC(=N)N)NC(=O)[C@@H](CC(C)C)NC(=O)[C@@H](CC(C)C)NC(C)=O)C(=O)N[C@H](CCCCN)C(=O)N[C@@H](C(=O)N[C@H](Cc1c[nH]c2ccccc12)C(=O)N[C@H](CCCNC(=N)N)C(=O)N[C@H](CCCCN)C(N)=O)C(C)C [GDST-038-RI] (HELM PEPTIDE1{[ac].[dL].[dL].[dR].[dW].[dW].[dK].[dK].[dA].[dI].[dK].[dV].[dW].[dR].[dK].[am]}$$$$V2.0; N-terminus and C-terminus assumed) | 3.75 | 120 | ≤ 2 | 1.88 to 3.75 | 60 | ≥ 60 | ≥ 60 | 60 | significant bacterial reductions | – | – | – | – | – | – | – | – |
| CC[C@@H](C)[C@@H](NC(=O)[C@@H](CC(C)C)NC(=O)[C@@H](CCCCN)NC(=O)[C@@H](CCCCN)NC(=O)[C@H](NC(=O)[C@@H](Cc1c[nH]c2ccccc12)NC(=O)[C@@H](CCCNC(=N)N)NC(=O)[C@@H](Cc1ccccc1)NC(=O)[C@@H](CC(C)C)NC(C)=O)C(C)C)C(=O)N[C@H](CCCCN)C(=O)N[C@@H](C(=O)N[C@H](Cc1c[nH]c2ccccc12)C(=O)N[C@H](CCCNC(=N)N)C(=O)N[C@H](CCCCN)C(N)=O)C(C)C [GDST-045-RI] (HELM PEPTIDE1{[ac].[dL].[dF].[dR].[dW].[dV].[dK].[dK].[dL].[dI].[dK].[dV].[dW].[dR].[dK].[am]}$$$$V2.0; N-terminus and C-terminus assumed) | 3.75 | ≤ 120 | ≤ 30 | 1.88 to 3.75 | ≥ 30 | 120 | – | 15 | significant bacterial reductions | ≥ 30 | 120 | – | – | – | – | – | – |
| Ac-KRWVKIAKKWWRLL-NH2 [GDST-038] | 3.75 | – | – | – | 120 | – | 120 | – | – | ≥ 60 | – | ≤ 5 | ≤ 1 | did not cause significant biofilm CFU reduction | 15 | completely eradicated | Time to complete killing of A. baumannii ([2]; 1.88 μM): ≤ 5 min; Killing of A. baumannii within 5 min ([2]; 1.88 μM, PBS, 5 min): > 90%; Killing of S. aureus within 5 min ([3]; 1.88 μM, PBS, 5 min): > 90%; S. aureus biofilm CFU reduction within 2 h ([6]; 2 h treatment, concentration not given): 5.1 log CFU |
| Ac-KRWVKILKKVWRFL-NH2 [GDST-045] | 3.75 | – | – | – | 60 | – | – | – | – | ≥ 7.5 | ≥ 30 | ≤ 2 | ≤ 1 | – | 15 | completely eradicated | Reduction in A. baumannii biofilm CFU, 24 h treatment ([5]; at ≥60 µM, 24 h treatment): 3.5 log |
| Ac-LKRVWKRVFKLLKRYWRQLKKPVR-NH2 (N-terminus and C-terminus assumed) [SAAP-148, reference compound] | 3.75 | – | – | 0.23 to 1.88 | ≥ 15 | – | – | – | – | – | – | – | – | complete eradication | 60 | – | CFU reduction of non-adherent S. aureus in HSE ([7]; 15 µM, 4 h, non-adherent fraction): 3 log CFU; Concentration reducing non-adherent S. aureus to below the detection limit in HSE ([7]; non-adherent fraction, 4 h peptide exposure, tested 3.75, 15, 60 μM): 60 µM |
